ChEMBL document CHEMBL6182882, “Evodiamine-Based Nitroreductase Responsive Theranostic Agents for Treatment of Colon Cancer” (J Med Chem, 2025)
Values belong to the molecule of their own block, whether it stands above or below them. Calls of active or inactive are those of the source. No cut-off for these calls is given here.

Columns and labels:
[1] = Metabolic stability in ICR mouse liver microsomes assessed as terminal half life; assay type: ADME, Microsome; details: read-out: beta t1/2
[2] = Cytotoxicity against human HUVEC cells assessed as inhibition of cell growth incubated for 72 hrs under normoxic condition by CCK-8 assay; assay type: toxicity, cell-based
Fusobacterium nucleatum = assay: Antibacterial activity against Fusobacterium nucleatum; assay type: functional
[3] = Metabolic stability in ICR mouse liver microsomes assessed as intrinsic clearance; assay type: ADME, Microsome; details: read-out: CLH
HCT-116 [4] = assay: Cytotoxicity against human HCT-116 cells assessed as inhibition of cell growth incubated for 72 hrs under hypoxic conditions by CCK-8 assay; assay type: functional, cell-based; details: HCT-116, 72 h
A549 [5] = assay: Cytotoxicity against human A549 cells assessed as inhibition of cell growth incubated for 72 hrs under hypoxic conditions by CCK-8 assay; assay type: functional, cell-based; details: A549, 72 h
[6] = (§1) Prodrug activation in phosphate buffer saline at pH 7.4 assessed as Escherichia coli nitroreductase mediated 3-fluoro-10-hydroxy-14-methyl-8,13,13b,14-tetrahydroindolo[2',3':3,4]pyrido[2,1-b]quinazolin-5(7H)-one formation by measuring fluorescence emission intensity at 25 uM incubated for 2 hrs in presence of NADH by fluorescence spectrophotometric analysis; details: isolated protein, pH 7.4, 2 h
[7] = Drug localization in nucleus of human HCT-116 cells at 25 uM incubated for 2 hrs by […] dye based confocal imaging analysis; assay type: ADME, subcellular; details: hct-116, 2 h
[8] = Drug localization in Mitochondria of human HCT-116 cells at 25 uM incubated for 2 hrs by Mito-tracker green dye based confocal imaging analysis; assay type: ADME; details: hct-116, 2 h
[9] = as §1, with “incubated for 0.5 to 2 hrs” for “incubated for 2 hrs”, “presence of 1 to 7 microg/ml NTR and NADH by” for “presence of NADH by”; details: isolated protein, pH 7.4, 25 µM, time 0.5-2 hrs
[10] = Toxicity in male nude mouse assessed as change in body weight at 10 mg/kg, ip administered twice daily for 14 consecutive days; assay type: organism-based; details: in vivo
[11] = Drug uptake in male nude mouse kidney xenografted in human HCT-116 cells at 10 mg/kg, […] administered via tail vein and measured at 12 hrs post injection by fluorescence imaging analysis; assay type: ADME, organism-based; details: in vivo
HCT-116 [12] = assay: Cytotoxicity against human HCT-116 cells assessed as inhibition of cell growth incubated for 72 hrs under normoxic conditions by CCK-8 assay; assay type: functional, cell-based; details: HCT-116, 72 h
[13] = Drug localization in endoplasmic reticulum of human HCT-116 cells at 25 uM incubated for 2 hrs by ER-tracker red dye based confocal imaging analysis; assay type: ADME, subcellular; details: hct-116, 2 h
A549 [14] = assay: Induction of cell cycle arrest in human A549 cells assessed as accumulation of cells at G2/M phase at 0.2 uM measured after 24 hrs by flow cytometric analysis (reference value: 3.81%); assay type: functional
A549 [15] = assay: Binding affinity to NTR in human A549 cells assessed as increase in fluorescence intensity at 25 uM incubated for 2 hrs under 2 to 10 % hypoxic condition by confocal fluorescence imaging based analysis; assay type: cell-based
A549 [16] = assay: Binding affinity to NTR in human A549 cells assessed as increase in fluorescence intensity at 10 to 100 uM incubated for 2 hrs by confocal fluorescence microscopic analysis; assay type: cell-based; details: dose 10-100 µM
A549 [17] = assay: Induction of apoptosis in human A549 cells assessed as apoptotic cells at 0.04 to 1.0 uM measured after 48 hrs by flow cytometric analysis (reference value: 6.44%); assay type: functional; details: dose 0.04-1 µM
HCT-116 [18] = assay: Induction of cell cycle arrest in human HCT-116 cells assessed as accumulation of cells at G2/M phase at 0.2 uM measured after 24 hrs by flow cytometric analysis (reference value: 18.45 %); assay type: functional
[19] = as §1, with “measuring fold increase in” for “measuring”; details: isolated protein, pH 7.4, 2 h
HCT-116 [20] = assay: Induction of apoptosis in human HCT-116 cells assessed as apoptotic cells at 0.04 to 1.0 uM measured after 48 hrs by flow cytometric analysis (reference value: 4.57%); assay type: functional; details: dose 0.04-1 µM
HCT-116 [21] = assay: Induction of cell cycle arrest in human HCT-116 cells assessed as accumulation of cells at G1 phase at 0.2 uM measured after 24 hrs by flow cytometric analysis (reference value: 48.40 %); assay type: functional
HCT-116 [22] = assay: Induction of cell cycle arrest in human HCT-116 cells assessed as accumulation of cells at S phase at 0.04 uM measured after 24 hrs by flow cytometric analysis (reference value: 33.15 %); assay type: functional
[23] = Drug uptake in male nude mouse tumor xenografted in human HCT-116 cells at 10 mg/kg, […] administered via tail vein and measured at 12 hrs post injection by fluorescence imaging analysis; assay type: ADME, organism-based, Neoplasm; details: in vivo
[24] = Drug localization in Cell membrane of human HCT-116 cells at 25 uM incubated for 2 hrs by Dio- tracker green dye based confocal imaging analysis; assay type: ADME, cell membranes; details: hct-116, 2 h
HCT-116 [25] = assay: Binding affinity to NTR in human HCT-116 cells assessed as increase in fluorescence intensity at 10 to 100 uM incubated for 2 hrs by confocal fluorescence microscopic analysis; assay type: cell-based; details: dose 10-100 µM
A549 [26] = assay: Cytotoxicity against human A549 cells assessed as inhibition of cell growth incubated for 72 hrs under normoxic conditions by CCK-8 assay; assay type: functional, cell-based; details: A549, 72 h
[27] = Drug localization in lysosome of human HCT-116 cells at 25 uM incubated for 2 hrs by Lyso-tracker red dye based confocal imaging analysis; assay type: ADME, subcellular; details: hct-116, 2 h
HCT-116 [28] = assay: Induction of cell cycle arrest in human HCT-116 cells assessed as accumulation of cells at G1 phase at 1.0 uM measured after 24 hrs by flow cytometric analysis (reference value: 48.40 %); assay type: functional
HCT-116 [29] = assay: Induction of cell cycle arrest in human HCT-116 cells assessed as accumulation of cells at G1 phase at 0.04 uM measured after 24 hrs by flow cytometric analysis (reference value: 48.40 %); assay type: functional
HCT-116 [30] = assay: Induction of cell cycle arrest in human HCT-116 cells assessed as accumulation of cells at S phase at 1.0 uM measured after 24 hrs by flow cytometric analysis (reference value: 33.15 %); assay type: functional
HCT-116 [31] = assay: Binding affinity to NTR in human HCT-116 cells assessed as increase in fluorescence intensity at 25 uM incubated for 2 hrs under 2 to 10 % hypoxic condition by confocal fluorescence imaging based analysis; assay type: cell-based
A549 [32] = assay: Induction of cell cycle arrest in human A549 cells assessed as accumulation of cells at G2/M phase at 0.04 uM measured after 24 hrs by flow cytometric analysis relative to control; assay type: functional
HCT-116 [33] = assay: Induction of cell cycle arrest in human HCT-116 cells assessed as accumulation of cells at S phase at 0.2 uM measured after 24 hrs by flow cytometric analysis (reference value: 33.15 %); assay type: functional
[34] = as §1, with “10” for “25”, “of 1 to 7 microg/ml NTR and” for “of”; details: isolated protein, pH 7.4, 2 h
HCT-116 [35] = assay: Induction of cell cycle arrest in human HCT-116 cells assessed as accumulation of cells at G2/M phase at 1.0 uM measured after 24 hrs by flow cytometric analysis (reference value: 18.45 %); assay type: functional
HCT-116 [36] = assay: Antitumor activity against human HCT-116 cells xenografted in male nude mouse assessed as tumor growth inhibition at 10 mg/kg, ip administered twice daily for 14 consecutive days; assay type: functional; details: read-out: TGI
HUVEC = assay: Binding affinity to NTR in human HUVEC cells assessed as fluorescence intensity at 10 to 100 uM incubated for 2 hrs by confocal fluorescence microscopic analysis; assay type: cell-based; details: dose 10-100 µM
HCT-116 [37] = assay: Induction of cell cycle arrest in human HCT-116 cells assessed as accumulation of cells at G2/M phase at 0.04 uM measured after 24 hrs by flow cytometric analysis (reference value: 18.45 %); assay type: functional
A549 [38] = assay: Induction of cell cycle arrest in human A549 cells assessed as accumulation of cells at G2/M phase at 1.0 uM measured after 24 hrs by flow cytometric analysis (reference value: 3.81%); assay type: functional
Bacteroides fragilis = assay: Antibacterial activity against Bacteroides fragilis; assay type: functional
[39] = molecular target: T1, DNA topoisomerase 1 (Homo sapiens) (UniProt P11387); assay: Inhibition of topoisomerase 1 (unknown origin) […] activity using pBR322 DNA as substrate at 125 to 250 uM incubated for 15 mins by ethidium bromide staining based agarose gel electrophoresis; details: dose 125-250 µM
T1 sequence (whole entry): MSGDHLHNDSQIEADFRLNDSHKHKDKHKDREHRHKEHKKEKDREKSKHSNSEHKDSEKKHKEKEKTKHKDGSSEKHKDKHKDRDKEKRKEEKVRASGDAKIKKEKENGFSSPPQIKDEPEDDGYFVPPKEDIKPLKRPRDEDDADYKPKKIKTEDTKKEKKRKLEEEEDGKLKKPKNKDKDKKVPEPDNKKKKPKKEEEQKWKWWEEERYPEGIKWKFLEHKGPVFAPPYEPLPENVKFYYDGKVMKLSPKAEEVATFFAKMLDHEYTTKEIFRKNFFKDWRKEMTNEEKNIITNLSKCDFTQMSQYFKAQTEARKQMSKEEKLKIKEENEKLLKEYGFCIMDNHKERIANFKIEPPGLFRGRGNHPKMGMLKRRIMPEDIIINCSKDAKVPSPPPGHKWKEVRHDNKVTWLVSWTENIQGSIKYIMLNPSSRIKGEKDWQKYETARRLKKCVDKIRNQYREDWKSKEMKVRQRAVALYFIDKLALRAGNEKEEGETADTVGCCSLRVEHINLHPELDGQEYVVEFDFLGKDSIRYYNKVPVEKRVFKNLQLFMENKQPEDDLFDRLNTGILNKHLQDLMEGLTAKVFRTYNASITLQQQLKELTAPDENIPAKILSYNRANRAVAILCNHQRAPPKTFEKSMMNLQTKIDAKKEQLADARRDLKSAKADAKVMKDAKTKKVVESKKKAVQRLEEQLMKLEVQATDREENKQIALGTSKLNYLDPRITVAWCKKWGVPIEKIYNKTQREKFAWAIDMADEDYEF

[40] = Drug localization in lysosome of human A549 cells at 25 uM incubated for 2 hrs by Lyso-tracker red dye based confocal imaging analysis; assay type: ADME, subcellular; details: a549, 2 h
HCT-116 [41] = assay: Antitumor activity against human HCT-116 cells xenografted in male nude mouse assessed as tumor growth inhibition at 0.5 mg/kg, ip administered twice daily for 14 consecutive days; assay type: functional; details: read-out: TGI
[42] = Toxicity in male nude mouse assessed as change in body weight at 0.5 mg/kg, ip administered twice daily for 14 consecutive days; assay type: organism-based; details: in vivo

Compound: CN1c2ccc(F)cc2C(=O)N2CCc3c([nH]c4ccc(O)cc34)C21 (stereo not drawn)
- half-life [1]: 0.164 h
- IC50 at 72 h [2]: 44 nM
- MIC50 (Fusobacterium nucleatum): > 64 µg/mL
- CLint scaled [3]: 555 mL/min/kg
- IC50 (HCT-116 [4]): 15 nM
- IC50 (A549 [5]): 15 nM

Compound: CN1c2ccc(F)cc2C(=O)N2CCc3c([nH]c4ccc(OC(=O)/C=C/C(=O)OCc5cc6ccc(OCc7ccccc7)cc6oc5=O)cc34)C21 (stereo not drawn)
- Drug metabolism [6]: metabolite_notdetected

Compound: CC[C@@]1(O)C(=O)OCc2c1cc1n(c2=O)Cc2cc3c(CN(C)C)c(O)ccc3nc2-1 [TOPOTECAN]
- inhibition in vivo at 0.5 mg/kg (HCT-116 [41]): 82.5%
- Activity [42]: Toxic

Further lines, with some results ahead:

- Drug metabolism [6]: metabolite_detected
Compound: CN1c2ccc(F)cc2C(=O)N2CCc3c([nH]c4ccc(OC(=O)OCc5cc6ccc(OCc7ccc([N+](=O)[O-])cc7)cc6oc5=O)cc34)C21 (stereo not drawn)

- half-life [1]: 9.53 h
- Drug uptake [7]: Active
- Drug uptake [8]: Active
- Drug metabolism [9]: metabolite_detected
- Drug uptake [11]: Active
- Drug uptake [13]: Active
- fold change (FC) [19]: 14
- Drug uptake [23]: Active
- Drug uptake [24]: Active
- CLint scaled [3]: 9.54 mL/min/kg
- Drug uptake [27]: Active
- Drug metabolism [34]: metabolite_detected
- Drug metabolism [6]: metabolite_detected
- MIC50 (Bacteroides fragilis): > 64 µg/mL
- inhibition [39]: Weak_effect
- Drug uptake [40]: Active
Compound: CN1c2ccc(F)cc2C(=O)N2CCc3c([nH]c4ccc(OC(=O)/C=C/C(=O)OCc5cc6ccc(OCc7ccc([N+](=O)[O-])cc7)cc6oc5=O)cc34)C21 (stereo not drawn)
- IC50 at 72 h [2]: 120 nM
- Activity [10]: Non-toxic
- IC50 (HCT-116 [12]): 145 nM
- Activity (A549 [14]): 47.03%
- Activity (A549 [15]): Active
- Activity (A549 [16]): Active
- Activity (A549 [17]): 18.27%
- Activity (HCT-116 [18]): 74.9%
- Activity (HCT-116 [20]): 13.04%
- Activity (HCT-116 [21]): 7.74%
- Activity (HCT-116 [22]): 32.22%
- Activity (HCT-116 [25]): Active; Stronger Fluorescence Intensity Observed
- IC50 (A549 [26]): 255 nM
- IC50 (HCT-116 [4]): 71 nM
- Activity (HCT-116 [28]): 0.56%
- Activity (HCT-116 [29]): 43.77%
- Activity (HCT-116 [30]): 2.78%
- Activity (HCT-116 [31]): Active
- Activity (A549 [32]): 10.87%
- IC50 (A549 [5]): 38 nM
- Activity (HCT-116 [33]): 17.36%
- Activity (HCT-116 [35]): 96.66%
- inhibition in vivo at 10 mg/kg (HCT-116 [36]): 76.1%
- Activity (HUVEC): Active; Weak Fluorescence Observed
- Activity (HCT-116 [37]): 24.01%
- Activity (A549 [38]): 59.51%

- Drug metabolism [6]: metabolite_detected
Compound: CN1c2ccc(F)cc2C(=O)N2CCc3c([nH]c4ccc(OC(=O)CCC(=O)OCc5cc6ccc(OCc7ccc([N+](=O)[O-])cc7)cc6oc5=O)cc34)C21 (stereo not drawn)
